Measurements published in patent US12258328B2, “6-membered heteroaryl-containing aminopyridine compounds as EGFR inhibitors” (YUHAN CORPORATION, priority 2021, dated 2025).
Where two headings read alike, the source gives them in different places.

Key:
EGFR L858R/T790M/C797S = EGFR L858R/T790M/C797S (Homo sapiens, UniProt P00533, C797S/L858R/T790M); test: Biochemical EGFR kinase assay (Lance Ultra TR-FRET), triple mutant L858R/T790M/C797S
How it was run: (§1)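 Enzyme reactions lasted 1 hour at room temperature with test compounds between 0.003 and 10 μM, followed by 10 mM EDTA quench.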

EGFR L858R/C797S = EGFR L858R/C797S (Homo sapiens, UniProt P00533, C797S/L858R); test: Biochemical EGFR kinase assay (Lance Ultra TR-FRET), double mutant L858R/C797S
How it was run: as §1

EGFR del19/C797S = EGFR del19/C797S (Homo sapiens, UniProt P00533, C797S/DEL746-750); test: Biochemical EGFR kinase assay (Lance Ultra TR-FRET), double mutant del19/C797S
How it was run: as §1

EGFR del19/T790M/C797S = EGFR del19/T790M/C797S (Homo sapiens, UniProt P00533, C797S/DEL746-750/T790M); test: Biochemical EGFR kinase assay (Lance Ultra TR-FRET), triple mutant del19/T790M/C797S
How it was run: as §1

EGFR wildtype = EGFR wildtype (Homo sapiens, UniProt P00533); test: Biochemical EGFR kinase assay (Lance Ultra TR-FRET), wildtype
How it was run: as §1

[1] = ATP at Km, read-out: IC50 L858R/T790M/C797S, Km ATP
[2] = ATP at Km, read-out: IC50 L858R/C797S, Km ATP
[3] = ATP at Km, read-out: IC50 del19/C797S, Km ATP
[4] = ATP at Km, read-out: IC50 del19/T790M/C797S, Km ATP
[5] = ATP at Km, read-out: IC50 WT, Km ATP
[6] = IC50 L858R/T790M/C797S (nM) 100 μM ATP, 100 μM ATP
[7] = IC50 L858R/C797S (nM) 100 μM ATP, 100 μM ATP
[8] = Km ATP, read-out: IC50 L858R/C797S (nM) Km ATP
[9] = IC50 del19/C797S (nM) 100 μM ATP, 100 μM ATP
[10] = Km ATP, read-out: IC50 del19/C797S (nM) Km ATP
[11] = IC50 del19/T790M/C797S (nM) 100 μM ATP, 100 μM ATP
[12] = Km ATP, read-out: IC50 del19/T790M/C797S (nM) Km ATP
[13] = IC50 WT (nM) 100 μM ATP, 100 μM ATP
[14] = Km ATP, read-out: IC50 WT (nM) Km ATP
[15] = IC50 L858R/T790M/C797S, 100 μM ATP
[16] = IC50 del19/T790M/C797S, 100 μM ATP
[17] = Km ATP, read-out: IC50 L858R/T790M/C797S (nM) Km ATP

EGFR L858R/T790M/C797S, sequence (P00533 25-1210 T790M/C797S/L858R): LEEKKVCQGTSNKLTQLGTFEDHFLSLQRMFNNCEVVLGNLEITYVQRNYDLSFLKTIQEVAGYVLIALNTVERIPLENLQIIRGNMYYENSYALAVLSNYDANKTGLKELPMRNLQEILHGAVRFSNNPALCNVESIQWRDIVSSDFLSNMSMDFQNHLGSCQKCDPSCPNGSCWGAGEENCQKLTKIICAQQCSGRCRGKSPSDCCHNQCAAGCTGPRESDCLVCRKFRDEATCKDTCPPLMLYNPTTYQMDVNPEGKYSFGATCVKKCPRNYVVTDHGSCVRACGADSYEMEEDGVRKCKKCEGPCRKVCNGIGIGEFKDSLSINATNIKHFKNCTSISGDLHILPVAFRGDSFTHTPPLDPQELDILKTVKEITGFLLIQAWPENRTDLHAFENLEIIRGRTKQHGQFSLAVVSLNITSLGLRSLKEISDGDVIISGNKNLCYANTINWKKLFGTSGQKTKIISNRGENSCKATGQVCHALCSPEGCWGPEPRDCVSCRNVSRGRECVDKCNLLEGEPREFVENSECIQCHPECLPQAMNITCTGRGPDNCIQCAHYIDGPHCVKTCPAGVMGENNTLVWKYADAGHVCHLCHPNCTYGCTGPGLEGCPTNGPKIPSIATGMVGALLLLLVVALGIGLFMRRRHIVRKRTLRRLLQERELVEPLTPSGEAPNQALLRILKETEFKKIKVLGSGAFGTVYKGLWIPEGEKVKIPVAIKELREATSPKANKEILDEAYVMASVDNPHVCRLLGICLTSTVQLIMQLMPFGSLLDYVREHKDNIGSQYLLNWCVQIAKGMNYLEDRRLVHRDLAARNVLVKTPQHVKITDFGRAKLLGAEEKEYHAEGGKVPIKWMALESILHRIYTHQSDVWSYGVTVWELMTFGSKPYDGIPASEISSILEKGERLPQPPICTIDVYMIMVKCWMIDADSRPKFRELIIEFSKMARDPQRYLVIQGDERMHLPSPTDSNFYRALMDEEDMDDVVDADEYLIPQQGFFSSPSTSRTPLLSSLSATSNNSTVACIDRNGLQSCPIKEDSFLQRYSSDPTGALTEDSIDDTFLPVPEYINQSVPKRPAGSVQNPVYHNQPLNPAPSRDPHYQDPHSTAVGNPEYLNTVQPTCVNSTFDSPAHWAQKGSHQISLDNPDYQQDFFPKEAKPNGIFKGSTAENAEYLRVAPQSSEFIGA
EGFR del19/C797S, sequence (P00533 with tags, fused parts or gaps DEL746-750/C797S): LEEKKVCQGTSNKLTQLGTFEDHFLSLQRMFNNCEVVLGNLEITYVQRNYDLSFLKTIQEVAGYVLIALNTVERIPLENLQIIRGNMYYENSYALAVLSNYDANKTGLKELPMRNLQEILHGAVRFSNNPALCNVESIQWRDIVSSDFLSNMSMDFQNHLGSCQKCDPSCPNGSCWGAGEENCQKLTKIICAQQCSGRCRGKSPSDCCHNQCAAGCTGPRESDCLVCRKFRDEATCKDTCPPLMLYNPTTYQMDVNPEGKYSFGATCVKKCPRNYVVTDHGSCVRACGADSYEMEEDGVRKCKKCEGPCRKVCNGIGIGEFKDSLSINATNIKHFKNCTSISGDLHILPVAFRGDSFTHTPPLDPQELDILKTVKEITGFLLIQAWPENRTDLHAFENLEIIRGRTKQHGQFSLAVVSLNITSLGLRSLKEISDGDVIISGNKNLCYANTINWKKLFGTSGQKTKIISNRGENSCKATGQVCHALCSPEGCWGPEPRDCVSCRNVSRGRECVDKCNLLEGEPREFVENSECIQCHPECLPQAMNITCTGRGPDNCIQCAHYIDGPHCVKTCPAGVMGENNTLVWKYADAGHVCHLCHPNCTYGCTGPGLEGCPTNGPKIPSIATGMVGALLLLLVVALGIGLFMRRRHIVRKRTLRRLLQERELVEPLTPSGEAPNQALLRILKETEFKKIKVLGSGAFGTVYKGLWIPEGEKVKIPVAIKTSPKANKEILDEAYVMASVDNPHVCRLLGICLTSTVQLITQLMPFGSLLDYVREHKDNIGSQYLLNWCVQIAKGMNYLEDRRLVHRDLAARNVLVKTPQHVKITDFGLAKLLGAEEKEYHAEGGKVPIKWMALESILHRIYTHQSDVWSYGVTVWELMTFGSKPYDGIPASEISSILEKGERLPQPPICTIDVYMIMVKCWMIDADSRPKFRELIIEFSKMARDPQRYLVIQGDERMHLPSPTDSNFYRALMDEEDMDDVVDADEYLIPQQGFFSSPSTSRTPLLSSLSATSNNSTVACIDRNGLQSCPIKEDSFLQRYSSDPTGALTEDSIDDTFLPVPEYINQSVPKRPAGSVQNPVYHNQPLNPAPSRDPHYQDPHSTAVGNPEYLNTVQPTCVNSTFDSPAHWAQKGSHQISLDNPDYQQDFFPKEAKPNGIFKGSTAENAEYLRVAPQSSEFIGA
EGFR L858R/C797S, sequence (P00533 25-1210 C797S/L858R): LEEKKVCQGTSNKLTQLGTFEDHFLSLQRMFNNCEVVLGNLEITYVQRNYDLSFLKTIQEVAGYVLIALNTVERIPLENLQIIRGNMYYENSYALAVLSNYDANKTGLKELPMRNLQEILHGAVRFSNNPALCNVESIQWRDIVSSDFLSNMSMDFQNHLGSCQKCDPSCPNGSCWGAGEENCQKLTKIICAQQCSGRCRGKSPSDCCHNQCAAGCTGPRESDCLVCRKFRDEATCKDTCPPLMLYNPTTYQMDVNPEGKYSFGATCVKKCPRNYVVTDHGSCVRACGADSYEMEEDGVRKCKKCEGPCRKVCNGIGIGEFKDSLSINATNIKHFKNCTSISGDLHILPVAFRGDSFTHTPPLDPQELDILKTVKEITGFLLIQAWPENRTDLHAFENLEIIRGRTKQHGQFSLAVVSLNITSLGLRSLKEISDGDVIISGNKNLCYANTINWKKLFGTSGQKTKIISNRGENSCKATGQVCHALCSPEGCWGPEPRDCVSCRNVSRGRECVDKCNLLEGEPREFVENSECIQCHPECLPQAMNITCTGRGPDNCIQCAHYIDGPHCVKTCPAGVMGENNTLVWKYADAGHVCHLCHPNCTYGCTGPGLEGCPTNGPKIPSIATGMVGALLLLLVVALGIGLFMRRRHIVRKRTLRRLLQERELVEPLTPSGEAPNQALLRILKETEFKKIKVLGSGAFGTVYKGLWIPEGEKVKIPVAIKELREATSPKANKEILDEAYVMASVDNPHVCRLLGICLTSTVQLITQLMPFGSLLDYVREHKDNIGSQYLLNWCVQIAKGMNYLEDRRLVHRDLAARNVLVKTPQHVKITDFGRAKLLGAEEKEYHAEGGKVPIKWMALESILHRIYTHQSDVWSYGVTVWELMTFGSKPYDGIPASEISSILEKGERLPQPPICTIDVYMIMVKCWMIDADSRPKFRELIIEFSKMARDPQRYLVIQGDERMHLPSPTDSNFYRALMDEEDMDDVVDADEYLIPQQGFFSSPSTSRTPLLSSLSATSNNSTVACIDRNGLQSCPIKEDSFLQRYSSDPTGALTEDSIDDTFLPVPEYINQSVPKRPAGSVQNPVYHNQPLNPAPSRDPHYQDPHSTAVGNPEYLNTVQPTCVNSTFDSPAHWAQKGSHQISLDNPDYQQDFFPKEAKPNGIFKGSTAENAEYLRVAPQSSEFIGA
EGFR wildtype, sequence (P00533 25-1210): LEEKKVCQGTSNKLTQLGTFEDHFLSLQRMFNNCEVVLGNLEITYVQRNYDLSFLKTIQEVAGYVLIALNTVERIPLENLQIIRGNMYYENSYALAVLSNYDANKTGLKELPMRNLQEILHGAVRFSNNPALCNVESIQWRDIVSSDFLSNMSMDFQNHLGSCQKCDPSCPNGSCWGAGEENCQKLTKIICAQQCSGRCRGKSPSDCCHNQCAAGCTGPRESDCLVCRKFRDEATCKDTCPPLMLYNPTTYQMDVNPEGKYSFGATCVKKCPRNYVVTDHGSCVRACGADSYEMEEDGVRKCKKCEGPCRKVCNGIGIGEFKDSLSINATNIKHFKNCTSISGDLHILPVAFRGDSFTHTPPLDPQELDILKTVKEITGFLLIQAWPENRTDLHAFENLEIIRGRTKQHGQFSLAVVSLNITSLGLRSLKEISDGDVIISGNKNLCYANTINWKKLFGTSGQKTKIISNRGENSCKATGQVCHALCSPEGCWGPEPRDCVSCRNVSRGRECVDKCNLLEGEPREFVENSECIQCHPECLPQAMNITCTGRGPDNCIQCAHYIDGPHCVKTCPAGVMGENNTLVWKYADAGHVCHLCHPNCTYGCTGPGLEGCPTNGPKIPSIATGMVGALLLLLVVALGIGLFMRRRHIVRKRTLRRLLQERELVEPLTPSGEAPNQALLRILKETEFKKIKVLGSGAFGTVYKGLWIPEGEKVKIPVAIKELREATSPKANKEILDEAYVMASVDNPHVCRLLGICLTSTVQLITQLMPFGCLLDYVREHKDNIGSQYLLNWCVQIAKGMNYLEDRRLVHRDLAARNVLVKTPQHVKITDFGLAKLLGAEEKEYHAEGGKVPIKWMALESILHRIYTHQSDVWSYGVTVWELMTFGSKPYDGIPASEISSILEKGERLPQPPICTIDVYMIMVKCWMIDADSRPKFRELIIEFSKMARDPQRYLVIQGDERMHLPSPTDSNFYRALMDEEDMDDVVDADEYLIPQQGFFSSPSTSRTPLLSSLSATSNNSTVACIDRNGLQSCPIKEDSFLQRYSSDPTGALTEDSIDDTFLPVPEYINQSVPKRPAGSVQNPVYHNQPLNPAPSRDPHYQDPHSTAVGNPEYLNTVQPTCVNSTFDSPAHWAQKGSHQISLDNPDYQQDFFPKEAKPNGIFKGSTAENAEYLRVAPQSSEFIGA

Row | IC50 (EGFR L858R/T790M/C797S; [1]) | IC50 (EGFR L858R/C797S; [2]) | IC50 (EGFR del19/C797S; [3]) | IC50 (EGFR del19/T790M/C797S; [4]) | IC50 (EGFR wildtype; [5]) | IC50 (EGFR L858R/T790M/C797S; [6]) | IC50 (EGFR L858R/C797S; [7]) | IC50 (EGFR L858R/C797S; [8]) | IC50 (EGFR del19/C797S; [9]) | IC50 (EGFR del19/C797S; [10]) | IC50 (EGFR del19/T790M/C797S; [11]) | IC50 (EGFR del19/T790M/C797S; [12]) | IC50 (EGFR wildtype; [13]) | IC50 (EGFR wildtype; [14]) | IC50 (EGFR L858R/T790M/C797S; [15]) | IC50 (EGFR L858R/C797S; IC50 L858R/C797S, 100 μM ATP) | IC50 (EGFR del19/C797S; IC50 del19/C797S, 100 μM ATP) | IC50 (EGFR del19/T790M/C797S; [16]) | IC50 (EGFR wildtype; IC50 WT, 100 μM ATP) | IC50 (EGFR L858R/T790M/C797S; [17]) | Structure (SMILES)
1 | 1.1 nM | 1.7 nM | 2.9 nM | 1.8 nM | 15.4 nM | – | – | – | – | – | – | – | – | – | – | – | – | – | – | – | CN(C)S(=O)(=O)n1cc(-c2nccc(Nc3cc(NC4CCC(C)(O)CC4)c(-c4ccc(C(C)(O)C(F)(F)F)cn4)cn3)n2)cn1 (stereo not shown) [Example 298, 4-(4-((4′-(((1s,4s)-4-Hydroxy-4-methylcyclohexyl)amino)-5-(1,1,1-trifluoro-2-hydroxypropan-2-yl)-[2,3′-bipyridin]-6′-yl)amino)pyrimidin-2-yl)-N,N-dimethyl-1H-pyrazole-1-sulfonamide]
2 | – | – | – | – | – | 1 nM | 6.2 nM | 0.6 nM | 5 nM | 1.8 nM | 1.1 nM | 1.6 nM | > 10000 nM | 13.7 nM | – | – | – | – | – | – | CC(O)c1cccc(-c2cnc(Nc3ccnc(-c4cnn(S(=O)(=O)C5CC5)c4)n3)cc2NC2CCC(C)(O)CC2)n1 (stereo not shown) [Example 23, (1s,4s)-4-((6′-((2-(1-(Cyclopropylsulfonyl)-1H-pyrazol-4-yl)pyrimidin-4-yl)amino)-6-(1-hydroxyethyl)-[2,3′-bipyridin]-4′-yl)amino)-1-methylcyclohexan-1-ol]
3 | 0.2 nM | 0.3 nM | 0.2 nM | 0.5 nM | 0.7 nM | – | – | – | – | – | – | – | – | – | 0.2 nM | 0.7 nM | 0.5 nM | 0.3 nM | 122 nM | – | CN(C)CC1CCC(Nc2cc(Nc3ccnc(-c4cnn(S(=O)(=O)C5CC5)c4)n3)ncc2-c2ccc(C(C)(O)C(F)(F)F)cn2)CC1 (stereo not shown) [Example 234, 2-(6′-((2-(1-(Cyclopropylsulfonyl)-1H-pyrazol-4-yl)pyrimidin-4-yl)amino)-4′-(((1s,4s)-4-((dimethylamino)methyl)cyclohexyl)amino)-[2,3′-bipyridin]-5-yl)-1,1,1-trifluoropropan-2-ol]
4 | – | – | – | – | – | 15.2 nM | 313 nM | 68.9 nM | 33.2 nM | 34 nM | 15.2 nM | 8.7 nM | > 10000 nM | 143 nM | – | – | – | – | – | 6.6 nM | C[C@]1(O)CC[C@@H](Nc2cc(Nc3ccnc(-c4cnn(S(=O)(=O)C5CC5)c4)n3)ncc2-c2cnc(N3CCC(F)(F)CC3)cn2)CC1 [Example 75, (1s,4s)-4-((2-((2-(1-(Cyclopropylsulfonyl)-1H-pyrazol-4-yl)pyrimidin-4-yl)amino)-5-(5-(4,4-difluoropiperidin-1-yl)pyrazin-2-yl)pyridin-4-yl)amino)-1-methylcyclohexan-1-ol]
5 | – | – | – | – | – | – | – | > 10000 nM | – | > 10000 nM | – | 17.5 nM | – | > 10000 nM | – | – | – | – | – | 6.6 nM | CC(C)Nc1cc(Nc2ccnc(-c3cnn(S(=O)(=O)C4CC4)c3)n2)ncc1-c1cnc(OC(F)F)cn1 [Example 127, N^2-(2-(1-(Cyclopropylsulfonyl)-1H-pyrazol-4-yl)pyrimidin-4-yl)-5-(5-(difluoromethoxy)pyrazin-2-yl)-N^4-isopropylpyridine-2,4-diamine]
6 | 0.8 nM | 1.4 nM | 3.8 nM | 1.2 nM | 0.6 nM | – | – | – | – | – | – | – | – | – | 1.3 nM | 85.4 nM | 7.7 nM | – | > 10000 nM | – | CC(C)(O)[C@H]1CC[C@@H](Nc2cc(Nc3ccnc(-c4cnn(S(=O)(=O)C5CC5)c4)n3)ncc2-c2cc(OCCN3CCOCC3)ccn2)CC1 [Example 213, 2-((1s,4s)-4-((6′-((2-(1-(Cyclopropylsulfonyl)-1H-pyrazol-4-yl)pyrimidin-4-yl)amino)-4-(2-morpholinoethoxy)-[2,3′-bipyridin]-4′-yl)amino)cyclohexyl)propan-2-ol]
7 | 0.6 nM | 4.4 nM | 1.4 nM | 0.6 nM | 8.9 nM | – | – | – | – | – | – | – | – | – | 1.1 nM | 19.1 nM | 9.8 nM | 2.6 nM | 5170 nM | – | CC(F)(F)c1ccc(-c2cnc(Nc3ccnc(-c4cnn(S(=O)(=O)C5CC5)c4)n3)cc2N[C@H]2CC[C@@](C)(O)CC2)nc1 [Example 292, (1s,4s)-4-((6′-((2-(1-(Cyclopropylsulfonyl)-1H-pyrazol-4-yl)pyrimidin-4-yl)amino)-5-(1,1-difluoroethyl)-[2,3′-bipyridin]-4′-yl)amino)-1-methylcyclohexan-1-ol]
8 | 5.4 nM | 25.9 nM | 27.8 nM | 8.5 nM | 115 nM | – | – | – | – | – | – | – | – | – | 9.3 nM | 289 nM | 30.5 nM | 2.3 nM | > 10000 nM | – | CC(C)(O)[C@H]1CC[C@@H](Nc2cc(Nc3ccnc(-c4cnn(S(=O)(=O)C5CC5)c4)n3)ncc2-c2ccc(CC(F)(F)F)cn2)CC1 [Example 220, 2-((1s,4s)-4-((6′-((2-(1-(Cyclopropylsulfonyl)-1H-pyrazol-4-yl)pyrimidin-4-yl)amino)-5-(2,2,2-trifluoroethyl)-[2,3′-bipyridin]-4′-yl)amino)cyclohexyl)propan-2-ol]
9 | 1 nM | 1.6 nM | 1.8 nM | 3.5 nM | – | – | – | – | – | – | – | – | – | – | 1.7 nM | 18.5 nM | 7.6 nM | 1.2 nM | > 10000 nM | – | CN(C)S(=O)(=O)c1ccc(-c2cnc(Nc3ccnc(-c4cnn(S(=O)(=O)C5CC5)c4)n3)cc2N[C@H]2CC[C@@H](C(C)(C)O)CC2)nc1 [Example 165, 6′-((2-(1-(Cyclopropylsulfonyl)-1H-pyrazol-4-yl)pyrimidin-4-yl)amino)-4′-(((1s,4s)-4-(2-hydroxypropan-2-yl)cyclohexyl)amino)-N,N-dimethyl-[2,3′-bipyridine]-5-sulfonamide]
10 | – | – | – | – | – | – | – | 1.1 nM | – | 1 nM | – | 0.1 nM | – | 7.9 nM | – | – | – | – | – | 0.2 nM | CN1CCC(Oc2ccc(-c3cnc(Nc4ccnc(-c5cnn(S(=O)(=O)C6CC6)c5)n4)cc3NC3CCC(F)(F)C3)nc2)CC1 (stereo not shown) [Example 143, N^6′-(2-(1-(Cyclopropylsulfonyl)-1H-pyrazol-4-yl)pyrimidin-4-yl)-N^4′-(3,3-difluorocyclopentyl)-5-((1-methylpiperidin-4-yl)oxy)-[2,3′-bipyridine]-4′,6′-diamine]
11 | 0.2 nM | 3 nM | 0.5 nM | 0.5 nM | 5.1 nM | – | – | – | – | – | – | – | – | – | 0.7 nM | 15 nM | 1.3 nM | 0.8 nM | > 10000 nM | – | CC(C)(O)[C@H]1CC[C@@H](Nc2cc(Nc3ccnc(-c4cnn(S(=O)(=O)C5CC5)c4)n3)ncc2-c2ccc(S(C)(=O)=O)cn2)CC1 [Example 160, 2-((1s,4s)-4-((6′-((2-(1-(Cyclopropylsulfonyl)-1H-pyrazol-4-yl)pyrimidin-4-yl)amino)-5-(methylsulfonyl)-[2,3′-bipyridin]-4′-yl)amino)cyclohexyl)propan-2-ol]
12 | 4.1 nM | 8.8 nM | 10.7 nM | 6.9 nM | 7.8 nM | – | – | – | – | – | – | – | – | – | – | – | – | – | – | – | COC(c1ccc(-c2cnc(Nc3ccnc(-c4cnn(S(=O)(=O)C5CC5)c4)n3)cc2NC2CCC(C)(O)CC2)nc1)C(F)(F)F (stereo not shown) [Example 260, (1s,4s)-4-((6′-((2-(1-(Cyclopropylsulfonyl)-1H-pyrazol-4-yl)pyrimidin-4-yl)amino)-5-(2,2,2-trifluoro-1-methoxyethyl)-[2,3′-bipyridin]-4′-yl)amino)-1-methylcyclohexan-1-ol]
13 | – | – | – | – | – | 0.2 nM | 1.9 nM | – | 0.3 nM | – | 0.5 nM | 0.4 nM | 152 nM | – | – | – | – | – | – | 0.1 nM | CC(C)(O)[C@H]1CC[C@@H](Nc2cc(Nc3ccnc(-c4cnn(S(=O)(=O)C5CC5)c4)n3)ncc2-c2ccc(CN3CCC(O)CC3)cn2)CC1 [Example 98, 1-((6′-((2-(1-(Cyclopropylsulfonyl)-1H-pyrazol-4-yl)pyrimidin-4-yl)amino)-4′-(((1s,4s)-4-(2-hydroxypropan-2-yl)cyclohexyl)amino)-[2,3′-bipyridin]-5-yl)methyl) piperidin-4-ol]
14 | – | – | – | – | – | – | – | 2.4 nM | – | 3.5 nM | – | 1.9 nM | – | 17.4 nM | – | – | – | – | – | 0.7 nM | C[C@]1(O)CC[C@@H](Nc2cc(Nc3ccnc(-c4cnn(S(=O)(=O)C5CC5)c4)n3)ncc2-c2cc(OC(F)F)ccn2)CC1 [Example 331, (1s,4s)-4-((6′-((2-(1-(Cyclopropylsulfonyl)-1H-pyrazol-4-yl)pyrimidin-4-yl)amino)-4-(difluoromethoxy)-[2,3′-bipyridin]-4′-yl)amino)-1-methylcyclohexan-1-ol]
